Literature values in patent US4868157A, “Dipeptidyl 2-amino-1,2-dideoxy-D-glucose derivatives as host resistance enhancers in AIDS-immunocompromised hosts and methods of use” (priority 1987, dated 1989).

Assays:
[1] = system: Mycobacterium aviumintracellulare
AIDS-related virus = settings: for symptoms and/or immune function in patients: ARC or AIDS patients, clinical trials; for viral replication in patients: humans / AIDS patients
[2] = target: HIV reverse transcriptase (Human immunodeficiency virus type 1 group M subtype B, UniProt P04585)
[3] = system: AIDS-related Kaposi's sarcoma; settings: AIDS-related Kaposi's sarcoma cases

CO[C@H]1/C=C/O[C@@]2(C)Oc3c(C)c(O)c4c(c3C2=O)C2=NC3(CCN(CC(C)C)CC3)NC2=C(NC(=O)/C(C)=C\C=C\[C@H](C)[C@H](O)[C@@H](C)[C@@H](O)[C@@H](C)[C@H](OC(C)=O)[C@@H]1C)C4=O [Ansamycin, rifabutin]
efficacy in AIDS patients with opportunistic Mycobacterium aviumintracellulare infection [1]: some efficacy

CC(C)(N1CC1C#N)N1CC1C(N)=O (stereo not drawn) [Azimexon]
symptoms and/or immune function in patients (AIDS-related virus): improvements in symptoms and immune function in patients with ARC but not AIDS

CC(C)(S)[C@@H](N)C(=O)O [D-Penicillamine, 3-mercapto-D-valine]
T cell levels (AIDS-related virus; human, in vivo): temporarily depressed T cell levels
viral replication in patients (AIDS-related virus): Inhibits HIV reproduction in humans
effect on the virus (AIDS-related virus; trials at George Washington University Medical Center, 13 AIDS patients with perpetually swollen glands): suppressed the virus

O=C(O)P(=O)(O)O [Foscarnet, trisodium phosphonoformate]
inhibition of HIV reverse transcriptase [2]: Inhibits HIV reverse transcriptase activity in vitro at levels pharmacologically acceptable in vivo

CC(=O)Nc1ccc(C(=O)O)cc1.CC(=O)Nc1ccc(C(=O)O)cc1.CC(=O)Nc1ccc(C(=O)O)cc1.CC(O)CN(C)C.CC(O)CN(C)C.CC(O)CN(C)C.O=c1[nH]cnc2c1ncn2[C@@H]1O[C@H](CO)[C@@H](O)[C@H]1O [Inosine pranobex, p-Acetamidobenzoic acid salt of (1-dimethylamino-2-propanol:inosinate complex 3:3:1 molar ratio)]
symptoms and/or immune function in patients (AIDS-related virus): improve immune function

NC(=O)c1ncn([C@@H]2O[C@H](CO)[C@@H](O)[C@H]2O)n1 [Ribavirin, 1-β-D-ribofuranosyl-1,2,4-triazole-3-carboxamide]
symptoms and/or immune function in patients (AIDS-related virus): improved immune function
viral replication in patients (AIDS-related virus): inhibited viral replication
tolerability (24-week trial in 373 ARC patients, at 12 weeks): well tolerated
safety profile (human, in vivo): acceptable

Cc1ccc(C(=O)Nc2ccc(S(=O)(=O)O)c3cc(S(=O)(=O)O)cc(S(=O)(=O)O)c23)cc1NC(=O)c1cccc(NC(=O)Nc2cccc(C(=O)Nc3cc(C(=O)Nc4ccc(S(=O)(=O)O)c5cc(S(=O)(=O)O)cc(S(=O)(=O)O)c45)ccc3C)c2)c1 [Suramin]
therapeutic benefit / clinical improvement in AIDS patients (AIDS-related virus): little or no evidence of clinical improvement or immunologic recovery

ammonium 21-tungsto-9-antimoniate [HPA-23]
therapeutic benefit / clinical improvement in AIDS patients (AIDS-related virus): no therapeutic benefit has been documented

α-Interferon
growth of HIV in vitro (HIV): Checks the growth of HIV in vitro
tumor regression [3]: induced tumor regression in some AIDS-related Kaposi's sarcoma cases
